Earlier results on five compounds are cited in patent US11766396B2, “Kit and method for dyeing keratinous material by means of aminosilicone and a chromophoric compound” (Henkel AG & Co. KGaA, priority 2019, dated 2023).

The conditions of data set [1]: 25° C.
For data set [2] the following is noted: 5% solution in water.

`O=S(=O)([O-])c1ccc(N=Nc2c(O)ccc3ccccc23)cc1.[Na+]` [Acid Orange 7, sodium salt of 4-[(2-hydroxy-1-naphthyl)azo]benzene sulphonate]: the solubility in water result in data set [1] is “more than 7 g/L”. Consider `Nc1cc(S(=O)(=O)[O-])cc2cc(S(=O)(=O)[O-])c(N=Nc3ccccc3)c(O)c12.[Na+].[Na+]` [Acid Red 33, diantrium salt of 5-amino-4-hydroxy-3-(phenylazo)-naphthalene-2,7-disulphonate], for which the solubility in water in data set [1] was 2500 µg/mL. With `O=C([O-])c1c(Cl)c(Cl)c(Cl)c(Cl)c1-c1c2c(Br)cc(=O)c(Br)c-2oc2c(Br)c(O)cc(Br)c12.O=C([O-])c1c(Cl)c(Cl)c(Cl)c(Cl)c1-c1c2c(Br)cc(=O)c(Br)c-2oc2c(Br)c(O)cc(Br)c12.[Na+].[Na+]` [Acid Red 92, disodium salt of 3,4,5,6-tetrachloro-2-(1,4,5,8-tetrabromo-6-hydroxy-3-oxoxanthen-9-yl)benzoic acid], the solubility in water result in data set [1] is reported as “greater than 10 g/L”.

For `O=C([O-])C1=NN(c2ccc(S(=O)(=O)[O-])cc2)C(=O)C1N=Nc1ccc(S(=O)(=O)[O-])cc1.[Na+].[Na+].[Na+]` (centres unmarked) [Acid Yellow 23, trisodium salt of 4,5-dihydro-5-oxo-1-(4-sulfophenyl)-4-((4-sulfophenyl)azo)-1H-pyrazole-3-carboxylic acid], the “solubility in water” value in data set [1] is on record as “highly soluble”. `O=P([O-])(O)O.[K+]` [Potassium dihydrogen phosphate]: the “pH value of solution in water” value in data set [2] is 4.4.
